The record followed here is ChEMBL document CHEMBL5303573, “Mapping human microbiome drug metabolism by gut bacteria and their genes” (Nature, 2019).

Data set [1] in a line: The drug is tested on Ruminococcus torques strain: ATCC27756 for biotransformation. The drug concentrations were measured before and after a 12-h incubation by liquid-chromatography-coupled mass spectrometry (LC–MS). It counts as ADME. Further details: dose 2 uM, timepoint 0 vs 12 hours. The note with it: 2 µM.
Data set [2] is described as follows: The drug is tested on Ruminococcus lactaris strain: ATCC29176 for biotransformation. The drug concentrations were measured before and after a 12-h incubation by liquid-chromatography-coupled mass spectrometry (LC–MS). The note with it: 2 µM.
Data set [3] can be described thus: The drug is tested on Anaerotruncus colihominis strain: DSM17241 for biotransformation. The drug concentrations were measured before and after a 12-h incubation by liquid-chromatography-coupled mass spectrometry (LC–MS). The note with it: 2 µM.
A short description of data set [4]: The drug is tested on Bacteroides caccae strain: ATCC43185 for biotransformation. The drug concentrations were measured before and after a 12-h incubation by liquid-chromatography-coupled mass spectrometry (LC–MS). The note with it: 2 µM.
Data set [5] in a line: The drug is tested on Bifidobacterium ruminantium strain: fecal isolate for biotransformation. The drug concentrations were measured before and after a 12-h incubation by liquid-chromatography-coupled mass spectrometry (LC–MS). As to conditions: 2 µM.
A short description of data set [6]: The drug is tested on Collinsella aerofaciens strain: ATCC25986 for biotransformation. The drug concentrations were measured before and after a 12-h incubation by liquid-chromatography-coupled mass spectrometry (LC–MS). The note with it: 2 µM.
A short description of data set [7]: The drug is tested on Bacteroides vulgatus strain: ATCC8482 for biotransformation. The drug concentrations were measured before and after a 12-h incubation by liquid-chromatography-coupled mass spectrometry (LC–MS). The note with it: phocaeicola vulgatus, 2 µM.
Data set [8] is described as follows: The drug is tested on Bacteroides cellulosilyticus strain: DSM14838 for biotransformation. The drug concentrations were measured before and after a 12-h incubation by liquid-chromatography-coupled mass spectrometry (LC–MS). The note with it: 2 µM.
Data set [9] in a line: The drug is tested on Clostridium scindens strain: ATCC35704 for biotransformation. The drug concentrations were measured before and after a 12-h incubation by liquid-chromatography-coupled mass spectrometry (LC–MS). The note with it: 2 µM.
Data set [10] is described as follows: The drug is tested on Dorea formicigenerans strain: ATCC27755 for biotransformation. The drug concentrations were measured before and after a 12-h incubation by liquid-chromatography-coupled mass spectrometry (LC–MS). As to conditions: 2 µM.
The conditions of data set [11]: bacteroides intestinalis, 12 h, 2 µM.
Data set [12] is described as follows: The drug is tested on Ruminococcus gnavus strain: ATCC29149 for biotransformation. The drug concentrations were measured before and after a 12-h incubation by liquid-chromatography-coupled mass spectrometry (LC–MS). The note with it: mediterraneibacter gnavus, 2 µM.
For data set [13] the following is noted: bacteroides thetaiotaomicron, 12 h, 2 µM.
The conditions of data set [14]: anaerostipes sp., 12 h, 2 µM.
The conditions of data set [15]: bacteroides fragilis, 12 h, 2 µM.
A short description of data set [16]: The drug is tested on Bifidobacterium longum subsp. Infantis strain: CCUG52486 for biotransformation. The drug concentrations were measured before and after a 12-h incubation by liquid-chromatography-coupled mass spectrometry (LC–MS). The note with it: 2 µM.
The conditions of data set [17]: bifidobacterium adolescentis, 12 h, 2 µM.
Data set [18] can be described thus: The drug is tested on Parabacteroides merdae strain: ATCC43184 for biotransformation. The drug concentrations were measured before and after a 12-h incubation by liquid-chromatography-coupled mass spectrometry (LC–MS). The note with it: 2 µM.
For data set [19] the following is noted: parabacteroides johnsonii, 12 h, 2 µM.
Description: The drug is tested on Parabacteroides johnsonii strain: DSM18315 for biotransformation. The drug concentrations were measured before and after a 12-h incubation by liquid-chromatography-coupled mass spectrometry (LC–MS)

For `CN(C)CCc1c[nH]c2ccc(Cn3cncn3)cc12.O=C(O)c1ccccc1` [RIZATRIPTAN BENZOATE], the “Bacterial Biotransformation” value in data set [1], in [2], in data set [3], in [4], in data set [5] and in data set [6] was “Compound NOT metabolized” each time. Further, the “Bacterial Biotransformation” value in [7], in data set [8], in data set [9] and in data set [10] was “Compound NOT metabolized” in each case.
In the case of `CCCCCCOC(=O)/N=C(/N)c1ccc(NCc2nc3cc(C(=O)N(CCC(=O)OCC)c4ccccn4)ccc3n2C)cc1.CS(=O)(=O)O` [DABIGATRAN ETEXILATE MESYLATE], the “Bacterial Biotransformation” value in [11], in data set [12], in [2], in data set [3], in data set [4] and in [5] was “Compound NOT metabolized” each time. The “Bacterial Biotransformation” value in data set [13], in data set [14], in data set [6], in data set [7], in [15] and in data set [8] was “Compound NOT metabolized” each time. In addition, the “Bacterial Biotransformation” value in data set [16], in data set [9], in data set [10], in [17] and in data set [18] was “Compound NOT metabolized” in each case.
As for `COc1ccc(CCN(C)CCCC(C#N)(c2ccc(OC)c(OC)c2)C(C)C)cc1OC` (stereo not drawn), the “Bacterial Biotransformation” value in data set [11] is “Compound metabolized”; in [12], “Compound NOT metabolized”; in data set [1] it was “Compound NOT metabolized”; in data set [2], “Compound NOT metabolized”; in [3], “Compound NOT metabolized”; in [4], “Compound NOT metabolized”. Also, the “Bacterial Biotransformation” value is “Compound NOT metabolized” in data set [5]; “Compound metabolized” in [13]; “Compound NOT metabolized” in data set [14]; “Compound NOT metabolized” in data set [6]; “Compound metabolized” in [7]; “Compound NOT metabolized” in [15]. For the same compound, the “Bacterial Biotransformation” value in [8], in data set [16], in [10], in data set [17] and in data set [18] was “Compound NOT metabolized” in each case.
As to `CCCc1nc2c(C)cc(-c3nc4ccccc4n3C)cc2n1Cc1ccc(-c2ccccc2C(=O)O)cc1`, the “Bacterial Biotransformation” value in data set [11], in data set [12], in [1], in data set [2], in data set [5] and in data set [14] was “Compound NOT metabolized” in each case. The “Bacterial Biotransformation” value in [6] was “Compound NOT metabolized”; in data set [7], “Compound metabolized”; in [8], “Compound metabolized”; in data set [16], “Compound NOT metabolized”; in data set [9] it was “Compound NOT metabolized”; in data set [10], “Compound NOT metabolized”. Besides, in data set [17], the “Bacterial Biotransformation” value is “Compound NOT metabolized”.
As to `CS(=O)(=O)O.OC(CCN1CCCCC1)(c1ccccc1)c1ccccc1` [PRIDINOL METHANESULFONATE], the “Bacterial Biotransformation” value in data set [11], in data set [12], in data set [1], in [2], in data set [3] and in data set [4] was “Compound NOT metabolized” each time. Also, the “Bacterial Biotransformation” value in data set [5], in [13], in data set [14], in data set [6], in [7] and in data set [15] was “Compound NOT metabolized” in each case. In addition, the “Bacterial Biotransformation” value in data set [8], in data set [16], in data set [9], in data set [10], in data set [17] and in data set [18] was “Compound NOT metabolized” throughout.
On to `OCCOCCN1CCN(C2=Nc3ccccc3Sc3ccccc32)CC1` [QUETIAPINE], for which the “Bacterial Biotransformation” value in data set [11], in [12], in data set [1], in [2], in data set [3] and in data set [4] was “Compound NOT metabolized” each time. Further, the “Bacterial Biotransformation” value in [5], in data set [14], in data set [6], in data set [7], in data set [15] and in data set [8] was “Compound NOT metabolized” in each case. The “Bacterial Biotransformation” value in [16], in data set [9], in data set [10], in data set [17] and in data set [18] was “Compound NOT metabolized” each time.
With `COc1cc2nc(N3CCN(C(=O)c4ccco4)CC3)nc(N)c2cc1OC` [PRAZOSIN], the “Bacterial Biotransformation” value in data set [11], in data set [1], in data set [2], in data set [3], in data set [4] and in data set [5] was “Compound NOT metabolized” each time. Moreover, the “Bacterial Biotransformation” value in data set [13], in data set [19], in data set [14], in data set [6], in [15] and in [8] was “Compound NOT metabolized” in each case. Moreover, the “Bacterial Biotransformation” value in [16], in [10], in data set [17] and in [18] was “Compound NOT metabolized” throughout.
